Reference: patent publication US6265423A, “Aromatic polycyclic retinoid-type derivatives, method for preparing same, and use thereof for making pharmaceutical and cosmetic compositions” (priority 1996, dated 2001)
“Also recorded” adds a separate entry of the source.

Columns and labels:
[1] = tested on: ERE-βGlob-Luc, MELN lineage (MCF-7); test: Anti-oestrogenic effect, MELN lineage activated by estradiol; format: cell-based, human; conditions: for inhibition at 0.01 µM / inhibition / inhibition at 0.1 µM: Homo sapiens, MCF7, cells activated by 10^-9 M estradiol; for inhibition at 0.01 µM: 10^-8 M; for inhibition at 0.01 µM / inhibition at 0.1 µM: read-out: anti-oestrogenic effect, inhibition; for inhibition: 10^-6 M; for inhibition at 0.1 µM: 10^-7 M
Source text: (§1) Certain properties of the retinoids have been determined using more developed cellular models. These models consist of cellular lineages transfected in a stable fashion by recombinant plasmids which place the expression of the gene of the luciferase under the control of different nuclear response elements. […] The tests carried out in duplicate are described below for each of these models.
MCF-7 cells express RARα,γ and RXRα. The transfection of MCF-7 cells by an oestrogen-dependent gene (ERE-βGlob-Luc) has permitted the establishment of the MELN cellular lineage, used to determine the anti-oestrogenic activity of the retinoids. These cells contain the gene of the luciferase under the transcriptional control of the promoter of the βGlobine and of the response element ERE isolated from the gene of chicken vitelogenine A2. The experiments are carried out with MELN cells activated by 10^-9 M estradiol. The level of base activity of the MELN cells is obtained with the anti-oestrogen 1 μM 4-OH-tamoxifen (hydroxytamoxifen).
The effect of the products tested on the cells activated by 10^-9 M estradiol is expressed as a percentage, the level of base activity being deducted.

[2] = tested on: AP-1, MTLN lineage (MCF-7); test: Anti-AP-1 effect, MTLN lineage activated by TPA; format: cell-based, human
Description: as §1
The anti-factor AP-1 transrepressor effect of retinoids is determined using the MTLN lineage, coming from MCF-7 cells transfected in a stable fashion by a vector p(TRE)3 -tk-Luc which places the expression of the gene of luciferase under the control of […]. TPA activates the AP-1 complex formed from proteins of the family of nuclear proto-oncogenes (c-Jun and c-Fos). […] The experiments are made with the MTLN cells activated by 10^-7 M TPA.
The effect of the compounds on the MTLN cells activated by 10^-7 M TPA is expressed as a percentage. […] The inhibitive properties of the products are calculated after deduction of the base activity of the cells. The percentages reported correspond to a range of inhibitions determined from several experiments.

RARγ-ERcassette = test: Transactivation, chimerical receptor RARγ-ERcassette (HeLa); format: cell-based; conditions: 10^-6 M; TTNPB 10^-8 M = 100
Source text: (§2) The HeLa cells are co-transfected by a plasmid which codes for a retinoic receptor in which the C domain of bonding to the DNA is substituted by that of the receptor to RE oestrogens, and a plasmid which places the expression of the luciferase under the control of an ERE (Element of Response to Oestrogens). The expressed chimerical receptors are designated as RARα-ERcassette, RARβ-ERcassette, RARγ-ERcassette and RXRα-ERcassette. The A, B, D, E and F regions of the natural receptor are preserved as well as the transcriptional co-operation between the activation domains AF-1 and AF-2. These transitory transfection experiments follow the method of co-precipitation to calcium phosphate. The HeLa cells are co-transfected by […] of plasmid coding for the chimerical receptor, […] of reporter plasmid and […] of expression vector CMV-β-galactosidase used as an internal control of transfection. 24 hours after the transfection, the cells are incubated for 16 hours with the different effectors.
(§3) In this type of chimerical receptor, the C domain of bonding to the DNA of RAR is substituted by that of the receptor to the RE oestrogens. The protein obtained is close to the natural RAR receptor and preserves the transcriptional properties of the AF-1 and AF-2 domains. It modulates the transcription by means of an ERE. This RAR-ERcassette model allows one to observe a transcriptional response to a more physiological ligand.

[3] = tested on: response element RARE of RARβ gene, endogenic retinoic receptors, HRLN lineage; test: HRLN transactivation (RARE-luciferase, stably transfected HeLa); format: cell-based; conditions: Homo sapiens, HeLa; for EC50: concentrations from 1 nM to 1 μM; for Emax: read-out: HRLN transactivation, E max
Description: (§4) MCF-7 cells and HeLa are cultivated in DMFM with phenol red to which 5% foetal calf serum is added. The T47-D cells are cultivated in RPMI to which 10% foetal calf serum is added. The experimental tests are carried out in DMEM without phenol red to which foetal calf serum treated with dextran carbon is added at 3%. […] The experiments using the different retinoids are carried out sheltered from the light so as to avoid any isomerisation.
as §1
The cellular lineages HRLN and HRL+N allow one to study the activation of an RARE by endogenic receptors using ligands at physiological concentrations. These lineages derive from HeLa cells transfected in a stable fashion by a reporter gene which places the expression of the gene of the luciferase under the control of a nuclear response element RARE (RARE3 -tk-Luc). The HeLa cells express all the known receptors of the retinoic acid (RARα,β,γ and RXRα,β,γ) with a predominance of RARα and RXRα. The response element RARE used for the HRLN cells corresponds to the sequence of the natural gene of the RARβ receptor (GGTTCAnnnnnAGTTCA). The HRL+N cells comprise the sequence GAGTGAnnnnnCGGTGA.
This lineage comprises the response element RARE of the natural gene of the RARβ receptor which controls the expression of the gene of the luciferase.

RARβ-ERcassette = test: Transactivation, chimerical receptor RARβ-ERcassette (HeLa); format: cell-based; conditions: 10^-6 M; TTNPB 10^-8 M = 100
Source text: as §2, §3

[4] = tested on: human mammary tumoral lineage T-47D; test: Clonogenic test (soft agar), growth of cellular colonies; format: cell-based; conditions: T-47D; for activity at 0.01 µM / activity at 0.001 µM / activity at 0.0001 µM: 504 h, 21 days, control = 100%, read-out: mean number of cellular colonies in relation to control; for activity at 0.001 µM: 10^-9 M; for activity at 0.0001 µM: 10^-10 M; for effect on growth of cellular colonies (in words): soft agar
Source text: The human tumour stem cells are the clonogenic cells which are the origin of the neoplasic cells which constitute a given tumour. These tumour stem cells are responsible for the recidivism process observable after surgical resection of the primary tumours and are also responsible for the formation of metastases. […] At the level of a tumour or of a tumoral cellular lineage, these clonogenic stem cells distinguish themselves from other clonogenic cells of the tumour or of the neoplasic cellular lineage being considered, by the fact that they preserve their ability to proliferate in the absence of any solid support.
This technique is suitable for the culturing in vitro of most of the tumours and tumoral cellular lineages of various histological types. In the context of this test, the neoplastic cells are cultured on a semi-solid culture medium "soft agar" made up of a mixture of agar and agarose. On this selective support, only tumoral stem cells survive and proliferate. […] The morphological characteristics and the growth of the cellular colonies are also a function of the histological type of the tumours being considered.
These culture conditions are also called "anchorage-independent" conditions.
The base medium "MEM 25 MM HEPES" (Minimum Essential Medium, Life Technologies, Belgium) contains Eagle salts but no L-glutamine. This medium is well suited to the growth of a range of varied diploid cells or primary mammal cells. To this medium is then added:
The tumoral cells are maintained in culture in 25 cm^2 falcon dishes (Life Technologies, Belgium). They are then trypsinised and individualised. Their rate of viability is determined by coloration with trypan blue (Sigma, Belgium). It must be greater than 90%. In the case where this condition is kept to, a cellular suspension at the desired concentration is prepared in a solution of agar at 0. 3%. The cells are then seeded between two layers of agar (Sigma, Belgium) and in 35 mm Petri dishes (Life Technologies, Belgium). The base layer is made up of a 0.5% solution of agar and the top layer is made up of a 0.3% solution of agar. The cupules are then positioned and held in an incubator at 37° C. and 5% of CO2. […] After treatment, the cupules are kept in the incubator for 21 days. It is advisable to examine, during the course of the experiment, the appearance and the increase of the cellular colonies. If after 10 days, no colony appears or is developing, the experiment must be repeated. In the contrary case, on the 21st day, 100 μl of an MTT solution (3-(4,5-dimethylthiazol-2-yl)-2,5 diphenyl tetrazolium bromide; Sigma, Belgium) dissolved in the RPMI culture medium (Roswell park Memorial Institute, Life Technologies, Belgium), at the concentration of 1 mg/ml are deposited on the top layer of the group of cupules. The cells are kept in contact with this solution for a minimum of 3 hours at 37° C.
Using an inverted microscope at low magnification, the number of clones whose surface area is greater thar. 100 μm^2 is determined for the group of cupules representing all the different experimental conditions. Then, for each of these experimental conditions, the mean number of cellular colonies±the standard error on the mean (ESM) is calculated.
The mean number of cellular colonies determined for each experimental condition is expressed as a percentage in relation to the control condition made equal to 100%.

RARα-ERcassette = test: Transactivation, chimerical receptor RARα-ERcassette (HeLa); format: cell-based; conditions: 10^-6 M; TTNPB 10^-8 M = 100
Source text: as §2, §3

T-47D cells = test: Effect on oestrogen-induced proliferation of T-47D cells; format: cell-based, human; conditions: Homo sapiens, T47D, 168 h; 1 μM (10^-6 M), 7 days, estradiol 10^-9 M; read-out: percentage inhibition of growth, T-47D
Description: as §4
So as to test the anti-proliferation effect of the retinoids, growth experiments under oestrogenic conditions were carried out on cells MCF-7 and T-47D. These are the human oestrogen-dependent mammary cancer cells which express the receptor to RE oestrogens. The effect of the molecules is evaluated after 7 days of culture in oestrogenic conditions (estradiol 10^-9 M) by dosing the cellular DNA. The cells are distributed in 24 well plates at a density of 2×10^4 cells per well. The tests with the different retinoids are carried out in triplicate and the culture medium is changed after 4 days of growth.

CC1(C)CCC(C)(C)c2cc(C(=O)Nc3ccc(C(=O)O)cc3)ccc21 [Am580, 4-[(5,6,7,8-tetrahydro-5,5,8,8-tetramethyl-2-naphthalenyl)carboxamido]benzoic acid, reference compound]
inhibition at 0.01 µM [1]: 36 to 51% | anti-oestrogenic effect, inhibition (of the order of) ([1]; MELN, estradiol 10^-9 M): ~40% | inhibition at 0.1 µM ([2]; Homo sapiens, MCF7, 10^-7 M, cells activated by 10^-7 M TPA, range of several experiments, read-out: anti-AP-1 effect, inhibition): 41 to 48% | inhibition at 0.01 µM ([2]; Homo sapiens, MCF7, 10^-8 M, cells activated by 10^-7 M TPA, range of several experiments, read-out: anti-AP-1 effect, inhibition): 40 to 46%

C/C(=C\c1ccc2c(c1)C(C)(C)CCC2(C)C)c1ccc(C(=O)O)nc1 [CB12273, (E) 5-[1-(5,6,7,8-tetrahydro-5,5,8,8-tetramethyl-2-naphthalenyl)-2-propenyl]pyridinyl-2-carboxylic acid]
RAR-ERcassette RARγ transactivation (RARγ-ERcassette): 106% | inhibition [1]: 21 to 41% | inhibition at 0.1 µM [1]: 7 to 16% | inhibition at 0.01 µM [1]: 0% | EC50 [3]: 21.4 ± 5.6 nM | Emax [3]: 106% | RAR-ERcassette RARβ transactivation (RARβ-ERcassette): 123% | activity at 0.01 µM ([4]; Homo sapiens, T47D, 10^-8 M): 71.2 ± 2.9% | activity at 0.001 µM ([4]; Homo sapiens, T47D): 93.9 ± 3.3% | activity at 0.0001 µM ([4]; Homo sapiens, T47D): 92.9 ± 21.7% | inhibition at 0.01 µM ([4]; Homo sapiens, T47D, 10^-8 M, read-out: inhibition of colony growth): 28.8% | RAR-ERcassette RARα transactivation (RARα-ERcassette): 90%

C/C(=C\c1ccc2c(c1)C(C)(C)CCC2(C)C)c1ccc(C(=O)O)s1 [CB38973]
inhibition [1]: 30% | EC50 [3]: 14.9 ± 12.3 nM | Emax [3]: 89% | activity at 0.01 µM ([4]; Homo sapiens, T47D, 10^-8 M): 38.6 ± 3.6% | activity at 0.001 µM ([4]; Homo sapiens, T47D): 60.1 ± 2% | activity at 0.0001 µM ([4]; Homo sapiens, T47D): 68.4 ± 8.3% | effect on growth of cellular colonies (in words) [4]: inhibit the growth of the cellular colonies; also recorded: significantly inhibit the growth of the colonies | inhibition at 1 µM (T-47D cells): 55%

C/C(=C\c1ccc2c(c1)C(C)(C)CCC2(C)C)c1cc(C(=O)O)no1 [CB57201]
RAR-ERcassette RARγ transactivation (RARγ-ERcassette): 84% | inhibition [1]: 23 to 41% | inhibition at 0.1 µM [1]: 1 to 9% | inhibition at 0.01 µM [1]: 0% | EC50 [3]: 55.8 ± 70.1 nM | Emax [3]: 70% | RAR-ERcassette RARβ transactivation (RARβ-ERcassette): 132% | activity at 0.01 µM ([4]; Homo sapiens, T47D, 10^-8 M): 64.8 ± 1.2% | activity at 0.001 µM ([4]; Homo sapiens, T47D): 58.9 ± 11% | activity at 0.0001 µM ([4]; Homo sapiens, T47D): 75.2 ± 12.2% | effect on growth of cellular colonies (in words) [4]: inhibit the growth of the cellular colonies; also recorded: significantly inhibit the growth of the colonies | RAR-ERcassette RARα transactivation (RARα-ERcassette): 73%

C/C(=C/c1ccc2c(c1)C(C)(C)CCC2(C)C)c1cc(C(=O)O)no1 [CB73069]
inhibition [1]: 17 to 21%

C/C(=C\c1ccc2c(c1)C(C)(C)CCC2(C)C)c1cc(C(=O)O)cs1 [CB80660]
inhibition [1]: 18 to 37% | inhibition at 0.1 µM [1]: 20 to 42% | inhibition at 0.01 µM [1]: 26% | EC50 [3]: 38.3 ± 9.5 nM | Emax [3]: 106%

CCCCCCCOc1cc2c(cc1/C(C)=C/c1ccc(C(=O)O)cc1)C(C)(C)CCS2(=O)=O [Ro 41-5253, reference compound]
anti-oestrogenic effect (in words) ([1]; estradiol-activated MELN cells): raises the inhibitor effect of Am580 and also of TTNPB | anti-AP-1 effect (in words) ([2]; TPA-activated MTLN cells): does not allow the inhibition induced by TTNPB to be totally lifted
